How the values were obtained:
[1] = target: T1, human erythrocyte calpain 1 (Homo sapiens, UniProt P07384); assay: Calpain-Glo Protease Assay; format: biochemical; settings: 5 mM CaCl2, 10 min, room temperature; mean of two experiments
T1 construct: human erythrocyte calpain 1 (MilliporeSigma); purchased MilliporeSigma; host or cells: human erythrocytes
T1 sequence (P07384 1-714): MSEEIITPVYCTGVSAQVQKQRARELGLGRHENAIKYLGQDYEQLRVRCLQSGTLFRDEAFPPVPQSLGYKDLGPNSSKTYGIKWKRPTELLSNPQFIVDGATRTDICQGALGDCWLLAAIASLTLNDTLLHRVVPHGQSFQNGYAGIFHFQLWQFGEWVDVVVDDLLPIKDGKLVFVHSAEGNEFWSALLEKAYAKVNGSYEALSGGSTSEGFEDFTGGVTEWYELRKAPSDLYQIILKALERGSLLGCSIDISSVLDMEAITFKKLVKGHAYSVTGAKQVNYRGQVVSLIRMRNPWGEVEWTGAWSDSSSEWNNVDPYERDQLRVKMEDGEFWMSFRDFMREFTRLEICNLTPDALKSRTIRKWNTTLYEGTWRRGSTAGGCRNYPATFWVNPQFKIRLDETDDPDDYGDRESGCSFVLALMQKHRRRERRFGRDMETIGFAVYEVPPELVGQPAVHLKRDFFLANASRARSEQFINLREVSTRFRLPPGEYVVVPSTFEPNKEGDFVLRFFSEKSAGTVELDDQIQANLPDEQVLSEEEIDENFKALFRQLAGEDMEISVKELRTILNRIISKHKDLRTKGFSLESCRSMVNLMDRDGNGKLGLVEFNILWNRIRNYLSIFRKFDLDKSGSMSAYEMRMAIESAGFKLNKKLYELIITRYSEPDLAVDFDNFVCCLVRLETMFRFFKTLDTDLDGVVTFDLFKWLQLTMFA
T1 sequence (P04632 1-268 partner): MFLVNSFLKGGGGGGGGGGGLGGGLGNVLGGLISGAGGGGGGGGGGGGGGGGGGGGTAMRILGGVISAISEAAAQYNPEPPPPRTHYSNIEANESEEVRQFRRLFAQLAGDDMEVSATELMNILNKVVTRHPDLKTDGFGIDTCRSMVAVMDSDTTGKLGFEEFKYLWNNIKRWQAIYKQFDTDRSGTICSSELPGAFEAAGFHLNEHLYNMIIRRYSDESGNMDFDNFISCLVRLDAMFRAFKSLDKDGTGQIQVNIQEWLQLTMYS
Procedure: For measurement of inhibitory activities against calpains in vitro, Calpain-Glo Protease Assay (Promega; Madison, WI, USA) was performed using human erythrocyte calpain 1 (MilliporeSigma) and purified porcine calpain 2. Briefly, 24 µL of each calpain diluted with 20 mM Tris-HCl (pH 7.4), 1 µL of each inhibitor, and 25 µL of reaction buffer including CaCl2 in a 96-well plate was incubated for 10 min at room temperature. The final concentration of CaCl2 in the reaction solution was 5 mM. The luminescence was measured using a microplate reader (GloMax Discover System; Promega). IC50 values from two independent experiments were averaged.

[2] = test system: calpain-specific SBDP150 in nerve fiber layer (NFL); assay: SBDP150 immunostaining of flat-mounted retinal explants under hypoxia/reoxygenation; format: cell-based, rhesus macaques (Macaca mulatta); settings: H16R8; for Effect on calpain-specific SBDP150-positive staining in NFL: cathepsin inhibitor at 10 or 100 µM
Procedure: Retina explant culture was performed as described in our previous report, except for the induction of hypoxia. Briefly, a hypoxic chamber (Coy Laboratory Products, Grass Lake, MI, USA) was controlled at 0.3% oxygen with a 95% N2/5% CO2 gas mixture. Retinas were dissected into fan-shaped explants with 6 or 7 petals (> 5 mm) in HBSS. Each explant was placed with the RGC side facing up on a Millicell organotypic standing insert (0.4 μm, 30 mm diameter, MilliporeSigma) in six-well, culture plates. They were cultured for 2 hr at 37°C under 95% N2/5% CO2 in Neurobasal-A medium supplemented with B27, N2 supplements, 2 mM L-glutamine (Thermo Fisher Scientific, Waltham, MA, USA), and 100 μg/mL primocin (Invivogen, San Diego, CA, USA). Retinal explants were then chamber-cultured under hypoxic conditions for 16 hr in a culture medium with 0.5 mM glucose, under 0.3% oxygen. The retinas were then re-oxygenated for 8 hr in a culture medium with 5.5 mM glucose. Normoxic control retinas were cultured for 24 hr in a culture medium with 5.5 mM glucose. When present, calpain inhibitors (SNJ-1945, PD-151746, C2I, and ABT-957) and cathepsin inhibitors (Odanacatib and SID26681509) in 0.1% DMSO were used at the final concentration of 10 or 100 μM in the medium. BAPTA (Thermo Fisher Scientific) and BAPTA-AM (Thermo Fisher Scientific) were also used at a final concentration of 3 or 10 mM or a final concentration of 100 or 500 μM, respectively.
All inhibitors and BAPTA were treated simultaneously with hypoxia induction, and BAPTA-AM treatment was 2 hr before hypoxia induction.
Formalin-fixed retinal explants were incubated overnight at −30°C in 1: 4 dilutions of DMSO-ethanol to promote antibody penetration. The explants underwent two cycles of freezing and thawing between −80°C and room temperature in 100% ethanol for 20 min. The retinas were then rehydrated in 70%, 50%, and 15% ethanol and PBS for 20 min each, followed by overnight incubation with 0.2% Triton X-100. The samples were stained with antibodies specific for calpain-specific SBDP150 [8] (1:100 dilution, Senju Pharmaceutical) and β-III tubulin (a neuron marker, 1:500 dilution, Merck). The nerve fiber layer (NFL) was observed approximately 5 mm from the tips of the fan-shaped retinal flat mounts. Confocal images were taken using a model LSM 880 spectral confocal system with a 20x 0.8 NA lens (Carl Zeiss, Oberkochen, Germany).

Compound	IC50 [1] [µM]	Effect on calpain-specific SBDP150-positive staining in NFL [2]	Effect on calpain-specific SBDP150 staining in NFL (calpain activation) ([2]; calpain inhibitor at 100 µM)
CCc1ccccc1NC(=O)CSC(=O)NNC(=O)[C@H](Cc1c[nH]c2ccccc12)NC(=O)OC(C)(C)C [SID26681509]	81	Neither Odanacatib nor SID26681509 mitigated the increase	
CC(C)(F)C[C@H](N[C@@H](c1ccc(-c2ccc(S(C)(=O)=O)cc2)cc1)C(F)(F)F)C(=O)NC1(C#N)CC1 [Odanacatib]	15.9	Neither Odanacatib nor SID26681509 mitigated the increase	
COCCOCCOC(=O)N[C@@H](CC(C)C)C(=O)N[C@@H](Cc1ccccc1)C(=O)C(=O)NC1CC1 [SNJ-1945]	0.077		demonstrated efficacy in reducing calpain activation

Reference: paper PMC12250347, “Calcium-dependent pathway as a primary cause of hypoxic RGC damage in monkey retinal explants” (PLOS One, 2025)
